Experiments:
[1] = 100 Day Potency Test of transdermal cream including meloxicam, topiramate, lidocaine, and prilocaine; type: physicochemical; settings: 100 days, stored at approximately 20° C. to 25° C., in cream, HPLC; for % of EXP.: relative to expected amount
Description: (§1) The sample was stored in approximately 20° C. to 25° C. (68° F. to 77° F.) conditions, and contained one large white tube with cream in a clear bag.

[2] = 198 Day Potency Test of transdermal cream including meloxicam, lamotrigine, lidocaine, and prilocaine; type: physicochemical; settings: 198 days, stored at approximately 20° C. to 25° C., in cream, HPLC; for % of EXP.: relative to expected amount
Description: as §1

[3] = Forced degradation study (heat and acid) on Meloxicam/Gabapentin/Lidocaine/Prilocaine Cream 0.09%/2.5%/2.15%/2.15%; settings: untreated, heat treated and acid treated samples, undiluted extracts
Description: (§2) The column temperature was 50° C.
as §2

With CCN(CC)CC(=O)Nc1c(C)cccc1C [Lidocaine] the “Results (amount of analyte found)” value [1] was 1.700%, the “% of EXP.” value [1] was 85.0% and the “Results (amount of analyte found)” value [2] was 1.927%. The “% of EXP.” value [2] was 96.4%.
With CC1(C)O[C@@H]2[C@@H](CO[C@@]3(COS(N)(=O)=O)OC(C)(C)O[C@@H]23)O1 [Topiramate] the “Results (amount of analyte found)” value [1] was 2.368% and the “% of EXP.” value [1] was 94.7%.
In the case of Nc1nnc(-c2cccc(Cl)c2Cl)c(N)n1 [Lamotrigine], the “Results (amount of analyte found)” value [2] was 2.463% and the “% of EXP.” value [2] was 98.5%.
In the case of CCCNC(C)C(=O)Nc1ccccc1C (stereo not shown) [Prilocaine], the “Results (amount of analyte found)” value [1] was 1.899%, the “% of EXP.” value [1] was 95.0% and the “Results (amount of analyte found)” value [2] was 2.118%. The “% of EXP.” value [2] was 105.9%.
With NCC1(CC(=O)O)CCCCC1 [Gabapentin] the “Degradation seen in Total Ion Chromatograms (TIC)” value [3] was “major degradant at 1.18 minute was caused both by acid and by heat”.

Source: patent US9962391B2, “Composition and method for compounded therapy” (CMPD LICENSING, LLC, priority 2011, dated 2018)
